Several values for one entry are separate records, joined by “and”; a condition that tells them apart may be missing. Equal values may be shown once. Where a name gives a salt, the structure may show the parent alone.
Assays:
[1] = test system: CAM vascularization of chick embryos; experiment: CAM Angiogenesis Inhibition Test (Direct Method); assay type: in vivo, chick (NORIN CROSS); details: even at 100 μg
Protocol: (§1) Using chick embryos, a test was carried out in accordance with the following method, which was a partial modification of the Taylor-Folkman'smethod Nature, 297, 307 (1982)].
(§2) Either DS4152 or heparin dissolved in physiological saline was added to the CAM of each 4-5 day old fertilized chicken 1 egg (species: NORIN CROSS) and then the eggs were incubated at 37° C.
(§3) Two days after the addition of the agent, the degree of the CAM vascularization was compared with that of a control to which physiological saline was only added. The 50% vascularization inhibition dose (ID50) was calculated by the probit method.

CAM angiogenesis [2] = experiment: CAM Angiogenesis Inhibition Test (Direct Method), DS4152 and heparins with tamoxifen citrate; assay type: in vivo, chick
Protocol: as §1, §2, §3
(§4) A test was conducted in the same manner as in Example 2. Antiestrogens were separately dissolved or suspended in physiological saline and were added either alone or together with DS4152. The eggs with the agents were incubated at 37° C. Two days after the addition of the agents, the degrees of development of CAM vessels were individually compared with that of a control to which physiological saline was only added.

Sarcoma 180 (S180) = experiment: Antitumor Test, S180, tamoxifen citrate with DS4152 or heparins; assay type: in vivo, mouse (male ICR)
Protocol: (§5) C3H/He male mice (5 weeks old) were each inoculated subcutaneously with 4×10^6 cells of mouse mammary carcinoma MM46. Mice were randomized after measuring the diameters of the resultant tumors on the 7th day. In addition, male ICR mice (5 weeks old) were each inoculated subcutaneously with 1×10^6 cells of Sarcoma 180 (S180). On the 3rd days, the mice were randomized. A saline suspension of tamoxifen citrate was administered once a day for 4 days to the MM46-bearing mice on the 7th day after inoculation and to the S180-bearing mice on the 3rd day after inoculation. DS4152 and heparins were individually dissolved in physiological saline and administered either orally or subcutaneously once a day for 4 days at a dose of 30 mg/kg/day or 300 mg/kg/day. On the 5th day after the beginning of the administration, the animals were sacrificed. The tumor weights were compared with those of the control mice administered only with physiological saline (Table 15).

[3] = test system: angiogenesis of the chick CAM; experiment: CAM angiogenesis inhibition, various steroids alone or with DS4152; assay type: in vivo; details: for degree of increase: ID50 alone vs. in the presence of 10 ng of DS4152; for ID50, used in combination with DS4152: in the presence of 10 ng of DS4152; for ID50, alone: steroid alone
[4] = test system: vascularization in chorioallantoic membrane (CAM) of chick embryo, rabbit cornea and hamster cheek pouches; details: cited from earlier work
CAM angiogenesis [5] = experiment: CAM Angiogenesis Inhibition Test (Direct Method), antiestrogens with or without DS4152; assay type: in vivo, chick
Protocol: as §1, §2, §3, §4

CAM vascularization [6] = experiment: Antiangiogenic Effects (Ex Vivo) of tamoxifen with or without DS4152; parameters: species or system chick (blood from mice); details: for Inhibition rate of angiogenesis: tamoxifen citrate 100 mg/kg s.c.
Protocol: (§6) Male ICR mice were orally administered with a solution of DS4152 dissolved in physiological saline. A saline suspension of a steroid was administered orally or intramuscularly, either in combination with DS4152 or alone. Blood samples collected after 6 hours were prevented from coagulation with a 0.313% aqueous solution of sodium citrate. Each blood sample was added to the 5 day CAM in the same manner as in the direct method. The inhibitory effects were judged after two days. Results were expressed by inhibition ratios (%) of CAM vascularization of each group to that of control group with a blood sample collected from the mice with saline. (Table 11).
In the same manner as in Example 8, antiangiogenic effects of tamoxifen were examined with or without DS4152.

[7] = test system: mouse mammary carcinoma MM46; experiment: Antitumor Test, MM46, tamoxifen citrate with DS4152; assay type: in vivo, mouse (male C3H/He)
Protocol: as §5

CAM vascularization [8] = experiment: Antiangiogenic Effects (Ex Vivo) of steroids with or without DS4152; parameters: species or system chick (blood from male ICR mice)
Protocol: as §6

breast cancer = details: Oncologia, 10, 72 (1984); cited from earlier work
[9] = tamoxifen citrate 100 mg/kg s.c. alone

heparin
effect on CAM vascularization [1]: no effect
50% vascularization inhibition dose (CAM angiogenesis [2]; with tamoxifen citrate 1 μg): 3.43 µg
T/C (Sarcoma 180 (S180); 300 mg/kg oral + tamoxifen citrate 100 mg/kg s.c.): 66%
Tumor weight, mean ± S.D. (Sarcoma 180 (S180); 300 mg/kg oral + tamoxifen citrate 100 mg/kg s.c., p < 0.05): 203 ± 13 mg

C[C@]12CC[C@@H]3c4ccc(O)cc4CC[C@H]3[C@@H]1CC[C@@H]2O [17β-Estradiol]
degree of increase [3]: 7.0 times
ID50, used in combination with DS4152 [3]: 0.28 μg/embryo
ID50, alone [3]: 1.96 μg/embryo

C[C@H]1C[C@@H]2[C@H]([C@@H](O)C[C@@]3(C)[C@H]2CC[C@]3(O)C(=O)CO)[C@@]2(C)C=CC(=O)C=C12 [6α-Methylprednisolone]
degree of increase [3]: 38.3 times
ID50, used in combination with DS4152 [3]: 0.03 μg/embryo
ID50, alone [3]: 1.15 μg/embryo
suppression of experimentally induced vascularization [4]: effective

CC(=O)O[C@]1(C(C)=O)CC[C@H]2[C@@H]3C[C@H](C)C4=CC(=O)CC[C@]4(C)[C@H]3CC[C@@]21C [Medroxyprogesterone acetate]
degree of increase [3]: 2.7 times
ID50, used in combination with DS4152 [3]: 0.42 μg/embryo
ID50, alone [3]: 1.12 μg/embryo

C[C@H]1C[C@H]2[C@@H]3CCC4=CC(=O)C=C[C@]4(C)[C@@]3(F)[C@@H](O)C[C@]2(C)[C@@]1(O)C(=O)CO [Betamethasone]
degree of increase [3]: 16.0 times
ID50, used in combination with DS4152 [3]: 0.05 μg/embryo
ID50, alone [3]: 0.80 μg/embryo

CC/C(=C(\c1ccccc1)c1ccc(OCCN(C)C)cc1)c1ccccc1 [Tamoxifen citrate]
percent inhibition of CAM vascularization (CAM angiogenesis [5]; antiestrogen 1 μg, DS4152 0 μg): -0.4%
percent inhibition of CAM vascularization (CAM angiogenesis [5]; antiestrogen 1 μg, DS4152 0.01 μg): 56.2%
percent inhibition of CAM vascularization (CAM angiogenesis [5]; antiestrogen 10 μg, DS4152 0 μg): 2.9%
percent inhibition of CAM vascularization (CAM angiogenesis [5]; antiestrogen 10 μg, DS4152 0.01 μg): 70.5%
effect on vascularization (CAM angiogenesis [2]; 1 μg, alone): too little to affect the vascularization
Inhibition rate of angiogenesis (CAM vascularization [6]; DS4152 0): -6.1% and -11.0%
Inhibition rate of angiogenesis (CAM vascularization [6]; DS4152 30 mg/kg oral): 40.0%
Inhibition rate of angiogenesis (CAM vascularization [6]; DS4152 30 mg/kg subcutaneous): 61.2%
influence on vascularization of CAM (CAM vascularization [6]; tamoxifen citrate only): no influence
inhibition of CAM vascularization (CAM vascularization [6]; tamoxifen with subcutaneous or oral DS4152 (30 mg/kg)): inhibited markedly the CAM vascularization
effect on growth of mammary carcinoma MM46 ([7]; single administration (alone)): inhibited
T/C [7, 9]: 6.6%
Tumor weight, mean ± S.D. ([7]; tamoxifen citrate 100 mg/kg s.c. alone, p < 0.05): 273 ± 27 mg
effect on growth of sarcoma S180 (Sarcoma 180 (S180); administered alone): did not affect the growth
T/C (Sarcoma 180 (S180); [9]): 97%
Tumor weight, mean ± S.D. (Sarcoma 180 (S180); [9]): 298 ± 31 mg

C[C@]12CC[C@@H](O)C[C@H]1CC[C@@H]1[C@@H]2CC[C@@]2(C)[C@H]1CC[C@]2(O)C(=O)CO [Tetrahydro S]
degree of increase [3]: 100.0 times
ID50, used in combination with DS4152 [3]: 0.01 μg/embryo
ID50, alone [3]: 1.00 μg/embryo
Inhibition rate of angiogenesis (CAM vascularization [8]; steroid p.o. 1 mg/kg, DS4152 0): -2.6%
Inhibition rate of angiogenesis (CAM vascularization [8]; steroid p.o. 1 mg/kg, DS4152 30 mg/kg p.o.): 71.7%
Inhibition rate of angiogenesis (CAM vascularization [8]; steroid p.o. 5 mg/kg, DS4152 0): -17.3%
Inhibition rate of angiogenesis (CAM vascularization [8]; steroid p.o. 5 mg/kg, DS4152 30 mg/kg p.o.): 80.7%

C[C@@H]1C[C@H]2[C@@H]3CCC4=CC(=O)C=C[C@]4(C)[C@@]3(F)[C@@H](O)C[C@]2(C)[C@@]1(O)C(=O)CO [dexamethasone]
suppression of experimentally induced vascularization [4]: effective

C[C@]12C[C@H]3S[C@H]3C[C@@H]1CC[C@@H]1[C@@H]2CC[C@]2(C)[C@@H](O)CC[C@@H]12 [Epithiostanol]
Inhibition rate of angiogenesis (CAM vascularization [8]; steroid i.m. 5 mg/kg, DS4152 0): 4.0%
Inhibition rate of angiogenesis (CAM vascularization [8]; steroid i.m. 5 mg/kg, DS4152 30 mg/kg p.o.): 5.2%
Inhibition rate of angiogenesis (CAM vascularization [8]; steroid i.m. 50 mg/kg, DS4152 0): 13.4%
Inhibition rate of angiogenesis (CAM vascularization [8]; steroid i.m. 50 mg/kg, DS4152 30 mg/kg p.o.): 23.4%
Inhibition rate of angiogenesis (CAM vascularization [8]; steroid i.m. 100 mg/kg, DS4152 0): 24.2%
Inhibition rate of angiogenesis (CAM vascularization [8]; steroid i.m. 100 mg/kg, DS4152 30 mg/kg p.o.): 37.6%

CCC(=O)O[C@H]1CC[C@H]2[C@@H]3CCC4=CC(=O)CC[C@]4(C)[C@H]3CC[C@]12C [testosterone propionate]
effectivity (anti-breast cancer) (breast cancer): 20-30%

Source: patent US4900815A, “Sulfated polysaccharide DS4152” (Daiichi Seiyaku Co., Ltd., priority 1986, dated 1990)
